Test results reported in paper PMC11079024, “Identification of a family of species-selective complex I inhibitors as potential anthelmintics” (Nature Communications, 2024).
Several values for one entry are separate records, joined by “and”; a condition that tells them apart may be missing. Equal entries are not always repeated. Where two headings read alike, the source gives them in different places.

What was measured:
[1] = system: adult H. polygyrus; experiment: microbe, parasite or virus in culture; assay type: cell-based, Heligmosomoides polygyrus
Experimental: To investigate the impact of the eleven benzimidazole derivatives under anaerobic conditions, an anaerobic chamber with an integrated incubator (Coy Laboratory Products, USA) was used. The same procedure was followed as described for the aerobic drug screening in adult H. polygyrus, but the incubation took place within the anaerobic chamber (37 °C, 85% N2, 10% CO2, 5% H2). Benzimidazole derivatives were tested at a concentration of 10 µM. For scoring, the plates had to be removed from the anaerobic chamber. The whole experiment was performed two times i.e., two independent biological replicates.
The activities of eleven benzimidazole derivatives were tested against adult H. polygyrus viability in vitro under aerobic (+, white boxplots) and anaerobic (–, coloured boxplots) conditions (see Methods). After 24-hour chemical treatment, worm viability was manually scored by an examiner using a scale from 0 (dead) to 3 (motile); DMSO was used as a negative control in both aerobic and anaerobic conditions; levamisole was used as a positive control in anaerobic conditions. The percentage of affected worms (i.e., worms with a score equal to or lower than 1.5) in each biological replicate is shown; data are from two biological replicates. Within each boxplot, black horizontal lines denote group medians, boxes span from the 25th to the 75th percentile of each group’s distribution, and whiskers extend to the maximum and minimum values. […]

[2] = system: H. polygyrus; conditions: cited from earlier work
[3] = system: C. elegans; experiment: C. elegans chemical screens of RIKEN NPD libraries at 50 μM (hit identification in KCN survival and development/viability assays); assay type: cell-based, Caenorhabditis elegans; conditions: screened at 50 μM in triplicate; hit = modified z-score < −3; KCN = KCN survival assay, Dev. & Viability = development/viability assay
[4] = system: HEK293 cells; conditions: human, 2 days, 6.3 µM
[5] = in vitro; conditions: human
[6] = system: L1 wild-type C. elegans; experiment: whole plant or invertebrate; conditions: Caenorhabditis elegans, 15 h
[7] = system: L1 wild-type C. elegans; experiment: 15-hour motility assay with drug alone (no KCN); assay type: cell-based, Caenorhabditis elegans; conditions: without KCN, 15-hour; for Value relative to DMSO control, drug alone (without KCN), Mean: mean of replicates; for Value relative to DMSO control, drug alone (without KCN): single replicates
[8] = system: L1 wild-type C. elegans; conditions: for KCN survival assay value relative to DMSO control, Mean / KCN survival assay value relative to DMSO control: drug + KCN, 15-hour; for KCN survival assay value relative to DMSO control, Mean: mean of replicates; for KCN survival assay value relative to DMSO control: single replicates
[9] = read-out: C. elegans KCN Survival Assay LC50

In the case of `c1ccc([C@H]2CN3CCSC3=N2)cc1` [levamisole, reference compound], the “# of Worms Affected” value [1] is given as 12, the killing at 10 µM ([1]; Heligmosomoides polygyrus, 24 h, read-out: Percent Worms Affected) is given as 100% and the “reduction in H. polygyrus worm burden” value ([2]; mouse, in vivo, 1.25 mg/kg) is given as 62%.

With `Fc1ccc(C(c2ccc(F)cc2)N2CCN(C/C=C/c3ccccc3)CC2)cc1` [Flunarizine] the “Hit Type” value [3] was “KCN”, the HEK293 viability [4] was 1.000 and the CC50 at 2 days ([5]; HEK293 Cell Viability Assay LC50) was 30.2 µM. The viability ([5]; HEK293 viability) was 92.6%, the viability at 2 days, 0.4 µM ([5]; HEK293 viability) was 88.1% and the viability at 2 days, 0.8 µM ([5]; HEK293 viability) was 81.5%. The viability at 2 days, 6.3 µM ([5]; HEK293 viability) was 100%, the viability at 2 days, 12.5 µM ([5]; HEK293 viability) was 99.4% and the viability at 2 days, 50 µM ([5]; HEK293 viability) was 17.1%. The LC50 [6, 9] was 22 µM.

In the case of `CO/N=C1\C[C@]2(C[C@@H]3C[C@@H](C/C=C(\C)C[C@@H](C)/C=C/C=C4\CO[C@@H]5[C@H](O)C(C)=C[C@@H](C(=O)O3)[C@]45O)O2)O[C@H](/C(C)=C/C(C)C)[C@H]1C` [moxidectin], the “reduction in H. polygyrus worm burden” value ([2]; single dose 1 mg/kg, mice) is listed as 99%.

In the case of `O=C(Nc1ccc([N+](=O)[O-])cc1Cl)c1cc(Cl)ccc1O` [Niclosamide], the “Hit Type” value [3] was “KCN”, the “Value relative to DMSO control, drug alone (without KCN), Mean” value ([7]; 0.025 µM) was 1.071 and the “Value relative to DMSO control, drug alone (without KCN)” value ([7]; 0.025 µM) was 0.995 and 1.216 and 1.349 and 0.779 and 1.019. For the same compound, the “Value relative to DMSO control, drug alone (without KCN), Mean” value ([7]; 0.05 µM) was 1.075, the “Value relative to DMSO control, drug alone (without KCN)” value ([7]; 0.05 µM) was 1.004 and 1.000 and 1.245 and 1.142 and 0.983 and the “Value relative to DMSO control, drug alone (without KCN), Mean” value ([7]; 0.1 µM) was 0.944. For the same compound, the “Value relative to DMSO control, drug alone (without KCN)” value ([7]; 0.1 µM) was 0.881 and 0.705 and 1.000 and 1.091 and 1.040, the “Value relative to DMSO control, drug alone (without KCN), Mean” value ([7]; 0.2 µM) was 0.857 and the “Value relative to DMSO control, drug alone (without KCN)” value ([7]; 0.2 µM) was 0.621 and 0.780 and 0.965 and 0.960 and 0.957. For the same compound, the “Value relative to DMSO control, drug alone (without KCN), Mean” value ([7]; 0.4 µM) was 0.828, the “Value relative to DMSO control, drug alone (without KCN)” value ([7]; 0.4 µM) was 0.811 and 0.792 and 0.740 and 0.844 and 0.957 and the “Value relative to DMSO control, drug alone (without KCN), Mean” value ([7]; 0.8 µM) was 0.938. The “Value relative to DMSO control, drug alone (without KCN)” value ([7]; 0.8 µM) was 0.966 and 0.718 and 0.993 and 1.008 and 1.003, the “Value relative to DMSO control, drug alone (without KCN), Mean” value ([7]; 3.1 µM) was 0.892 and the “Value relative to DMSO control, drug alone (without KCN)” value ([7]; 3.1 µM) was 0.775 and 0.855 and 0.898 and 1.068 and 0.863. For the same compound, the “Value relative to DMSO control, drug alone (without KCN), Mean” value ([7]; 6.3 µM) was 0.921, the “Value relative to DMSO control, drug alone (without KCN)” value ([7]; 6.3 µM) was 0.820 and 1.003 and 0.834 and 0.940 and 1.007 and the “Value relative to DMSO control, drug alone (without KCN), Mean” value ([7]; 12.5 µM) was 1.018. For the same compound, the “Value relative to DMSO control, drug alone (without KCN)” value ([7]; 12.5 µM) was 0.937 and 0.884 and 0.971 and 1.234 and 1.065, the “Value relative to DMSO control, drug alone (without KCN), Mean” value ([7]; 25 µM) was 0.884 and the “Value relative to DMSO control, drug alone (without KCN)” value ([7]; 25 µM) was 0.851 and 0.847 and 1.014 and 1.053 and 0.655. The “C. elegans L1 relative motility, 3-hour post 200 µM KCN dilution” value (shortened to “C. elegans L1 relative motility”) ([8]; dose 0.05 µM, Mean of replicates) was 1.030, the “C. elegans L1 relative motility” value ([8]; dose 0.05 µM, individual replicate (Rep)) was 1.077 and 0.962 and 1.145 and the “C. elegans L1 relative motility” value ([8]; dose 0.1 µM, Mean of replicates) was 0.412. The “C. elegans L1 relative motility” value ([8]; dose 0.1 µM, individual replicate (Rep)) was 0.940 and 1.178 and 0.971, the “C. elegans L1 relative motility” value ([8]; dose 0.2 µM, individual replicate (Rep)) was 0.475 and 0.408 and 0.354 and the “C. elegans L1 relative motility” value ([8]; dose 0.8 µM, Mean of replicates) was 0.011. For the same compound, the “C. elegans L1 relative motility” value ([8]; dose 3.1 µM, Mean of replicates) was 0.006, the “C. elegans L1 relative motility” value ([8]; dose 3.1 µM, individual replicate (Rep)) was 0.000 and the “C. elegans L1 relative motility” value ([8]; dose 6.3 µM, Mean of replicates) was 0.039. The “C. elegans L1 relative motility” value ([8]; dose 12.5 µM, Mean of replicates) was 0.0056, the “C. elegans L1 relative motility” value ([8]; dose 25 µM, Mean of replicates) was 0.020 and the “C. elegans L1 relative motility” value ([8]; dose […], Mean of replicates) was 0.000. The “KCN survival assay value relative to DMSO control, Mean” value ([8]; 0.025 µM) was 1.061, the “KCN survival assay value relative to DMSO control” value ([8]; 0.025 µM) was 0.962 and 1.145 and 1.077 and the “KCN survival assay value relative to DMSO control, Mean” value ([8]; 0.05 µM) was 1.030. For the same compound, the “KCN survival assay value relative to DMSO control” value ([8]; 0.05 µM) was 1.178 and 0.971 and 0.940, the “KCN survival assay value relative to DMSO control, Mean” value ([8]; 0.1 µM) was 0.412 and the “KCN survival assay value relative to DMSO control” value ([8]; 0.1 µM) was 0.408 and 0.354 and 0.475. For the same compound, the “KCN survival assay value relative to DMSO control, Mean” value ([8]; 0.2 µM) was 0.114, the “KCN survival assay value relative to DMSO control, Mean” value ([8]; 0.4 µM) was 0.0075 and the “KCN survival assay value relative to DMSO control, Mean” value ([8]; 0.8 µM) was 0.011. The “KCN survival assay value relative to DMSO control, Mean” value ([8]; 3.1 µM) was 0.006, the “KCN survival assay value relative to DMSO control, Mean” value ([8]; 6.3 µM) was 0.039 and the “KCN survival assay value relative to DMSO control, Mean” value ([8]; 12.5 µM) was 0.0056. The “KCN survival assay value relative to DMSO control, Mean” value ([8]; 25 µM) was 0.020, the LC50 [6, 9] was 0.095 µM and the LC50 ([6]; read-out: C. elegans KCN survival assay LC50) was 0.0948 µM.
